Tests used:
HDAC1 = HDAC1 (Homo sapiens (Human), UniProt Q13547); experiment: HDAC1 enzymatic assay; assay type: biochemical; settings: read-out: Human HDAC1 IC50
Procedure, shortened: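 HDAC1 activity was measured in duplicate 50 μl reactions containing 0.5 ng HDAC1, 10 uM of HDAC substrate, and test compound in buffer (50 mM Tris-HCl, pH 7.4, 137 mM NaCl, 2.7 mM KCl, 0.05% Tween 20, 5 μg BSA) with 1% DMSO, incubated 17 hours at room temperature. HDAC Developer was then added for 20 minutes and fluorescence read at 360/460 nm.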

HDAC6 = HDAC6 (Homo sapiens (Human), UniProt Q9UBN7); experiment: HDAC6 enzymatic assay; assay type: biochemical; settings: read-out: Human HDAC6 IC50
Procedure, shortened: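 Human HDAC6 activity was measured in duplicate 50 μl reactions holding 2 ng HDAC6, 10 uM of HDAC substrate and test compound in HDAC assay buffer (50 mM Tris-HCl, pH 7.4, 137 mM NaCl, 2.7 mM KCl, 0.05% Tween 20, 5 μg BSA) with 1% DMSO, for 17 hours at room temperature. HDAC Developer was added for 20 minutes before reading fluorescence at 360/460 nm.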

HDAC6, sequence (Q9UBN7 whole entry): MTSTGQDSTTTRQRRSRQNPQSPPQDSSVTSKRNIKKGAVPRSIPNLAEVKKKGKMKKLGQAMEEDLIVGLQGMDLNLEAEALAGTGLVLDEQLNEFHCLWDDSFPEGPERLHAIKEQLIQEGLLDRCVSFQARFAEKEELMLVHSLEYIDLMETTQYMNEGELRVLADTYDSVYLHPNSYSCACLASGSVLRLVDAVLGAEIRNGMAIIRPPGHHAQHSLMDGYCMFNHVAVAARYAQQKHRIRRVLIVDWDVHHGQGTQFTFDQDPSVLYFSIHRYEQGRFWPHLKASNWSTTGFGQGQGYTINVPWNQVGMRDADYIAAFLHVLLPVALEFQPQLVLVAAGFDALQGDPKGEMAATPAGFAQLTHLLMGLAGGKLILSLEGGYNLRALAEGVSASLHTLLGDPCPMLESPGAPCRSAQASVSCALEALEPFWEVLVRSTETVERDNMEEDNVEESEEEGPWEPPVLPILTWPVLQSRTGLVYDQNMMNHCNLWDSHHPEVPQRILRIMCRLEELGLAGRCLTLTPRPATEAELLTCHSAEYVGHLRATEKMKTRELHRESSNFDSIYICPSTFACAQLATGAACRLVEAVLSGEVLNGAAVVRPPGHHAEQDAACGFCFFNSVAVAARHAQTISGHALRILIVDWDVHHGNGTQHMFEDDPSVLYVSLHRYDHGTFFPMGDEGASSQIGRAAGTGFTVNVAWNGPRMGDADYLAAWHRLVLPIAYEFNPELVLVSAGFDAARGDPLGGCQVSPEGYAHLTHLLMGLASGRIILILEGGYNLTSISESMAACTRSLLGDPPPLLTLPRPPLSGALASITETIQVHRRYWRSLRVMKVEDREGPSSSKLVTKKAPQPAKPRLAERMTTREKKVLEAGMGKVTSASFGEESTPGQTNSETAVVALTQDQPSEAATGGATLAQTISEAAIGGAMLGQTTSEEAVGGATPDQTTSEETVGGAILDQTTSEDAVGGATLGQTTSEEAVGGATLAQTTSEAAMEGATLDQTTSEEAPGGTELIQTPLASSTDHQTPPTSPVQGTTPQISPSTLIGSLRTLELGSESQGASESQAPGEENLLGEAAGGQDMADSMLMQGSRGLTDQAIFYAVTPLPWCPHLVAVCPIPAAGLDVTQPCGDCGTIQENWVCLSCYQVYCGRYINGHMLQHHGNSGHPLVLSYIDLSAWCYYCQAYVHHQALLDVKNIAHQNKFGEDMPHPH
HDAC1, sequence (Q13547 whole entry): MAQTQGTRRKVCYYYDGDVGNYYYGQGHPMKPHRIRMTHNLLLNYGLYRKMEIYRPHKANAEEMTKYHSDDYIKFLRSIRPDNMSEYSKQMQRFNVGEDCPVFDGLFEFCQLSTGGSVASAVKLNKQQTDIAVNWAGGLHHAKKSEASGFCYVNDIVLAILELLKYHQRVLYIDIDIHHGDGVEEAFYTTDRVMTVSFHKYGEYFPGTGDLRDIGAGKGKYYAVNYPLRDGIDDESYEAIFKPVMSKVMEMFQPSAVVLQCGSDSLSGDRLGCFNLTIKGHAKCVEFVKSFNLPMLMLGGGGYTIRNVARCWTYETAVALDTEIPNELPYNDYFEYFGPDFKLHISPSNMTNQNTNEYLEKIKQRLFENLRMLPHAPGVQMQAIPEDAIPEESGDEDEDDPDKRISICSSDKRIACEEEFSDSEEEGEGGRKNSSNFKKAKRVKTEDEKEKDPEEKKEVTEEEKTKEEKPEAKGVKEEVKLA

Row | Structure (SMILES) | IC50 (HDAC1) | IC50 (HDAC6)
1 | CS(=O)(=O)N(CC(Nc1ncc(-c2nnc(C(F)F)o2)cn1)c1ccc(Cl)cc1)CC(F)(F)F (single isomer, unassigned) [174(+), N-(2-(4-chlorophenyl)-2-((5-(5-(difluoromethyl)-1,3,4-oxadiazol-2-yl)pyrimidin-2-yl)amino)ethyl)-N-(2,2,2-trifluoroethyl)methanesulfonamide] | > 30000 nM | 170 nM
2 | CN(c1ncc(-c2nnc(C(F)F)o2)cn1)C1(c2ccc(F)cc2)CC1 [Example 8, 5-(5-(difluoromethyl)-1,3,4-oxadiazol-2-yl)-N-(1-(4-fluorophenyl)cyclopropyl)-N-methylpyrimidin-2-amine] | > 30000 nM | 9000 nM
3 | O=C1CCCN1CC(Nc1ncc(-c2nnc(C(F)F)o2)cn1)c1ccc(F)cc1 (single isomer, unassigned) [177(+), 1-(2-((5-(5-(difluoromethyl)-1,3,4-oxadiazol-2-yl)pyrimidin-2-yl)amino)-2-(4-fluorophenyl)ethyl)pyrrolidin-2-one] | > 30000 nM | 110 nM
4 | CC(=O)NCC(Nc1ncc(-c2nnc(C(F)F)o2)cn1)c1ccc(F)cc1 (single isomer, unassigned) [78(+), N-(2-((5-(5-(difluoromethyl)-1,3,4-oxadiazol-2-yl)pyrimidin-2-yl)amino)-2-(4-fluorophenyl)ethyl)acetamide] | > 30000 nM | 48 nM
5 | CN(CC(Nc1ncc(-c2nnc(C(F)F)o2)cn1)c1ccc(F)cc1)C(=O)C1CC1 (single isomer, unassigned) [169(+), N-(2-((5-(5-(difluoromethyl)-1,3,4-oxadiazol-2-yl)pyrimidin-2-yl)amino)-2-(4-fluorophenyl)ethyl)-N-methylcyclopropanecarboxamide] | > 30000 nM | 77 nM
6 | Fc1cc(F)c(C2(Nc3ncc(-c4nnc(C(F)F)o4)cn3)CC2)c(F)c1 [Example 74, 5-(5-(difluoromethyl)-1,3,4-oxadiazol-2-yl)-N-(1-(2,4,6-trifluorophenyl)cyclopropyl) pyrimidin-2-amine] | > 30000 nM | 19 nM
7 | O=C(C1CC1)N(CC(Nc1ncc(-c2nnc(C(F)F)o2)cn1)c1ccc(F)cc1)CC(F)(F)F (single isomer, unassigned) [170(−), N-(2-((5-(5-(difluoromethyl)-1,3,4-oxadiazol-2-yl)pyrimidin-2-yl)amino)-2-(4-fluorophenyl)ethyl)-N-(2,2,2-trifluoroethyl)cyclopropanecarboxamide] | > 30000 nM | 1000 nM
8 | CCS(=O)(=O)N(C)CC(Nc1ncc(-c2nnc(C(F)F)o2)cn1)c1ccc(OC(F)(F)F)cc1 (stereo not drawn) [156(+), N-(2-((5-(5-(difluoromethyl)-1,3,4-oxadiazol-2-yl)pyrimidin-2-yl)amino)-2-(4-(trifluoromethoxy)phenyl)ethyl)-N-methylethanesulfonamide] | > 30000 nM | 76 nM
9 | Fc1ccc(C(COCC(F)(F)F)Nc2ncc(-c3nnc(C(F)F)o3)cn2)c(F)c1 (single isomer, unassigned) [163(+), 5-(5-(difluoromethyl)-1,3,4-oxadiazol-2-yl)-N-(1-(2,4-difluorophenyl)-2-(2,2,2-trifluoroethoxy)ethyl)pyrimidin-2-amine] | > 30000 nM | 110 nM
10 | CS(=O)(=O)NCC(Nc1ncc(-c2nnc(C(F)F)o2)cn1)c1ccc(Cl)cc1 (single isomer, unassigned) [173(−), N-(2-(4-chlorophenyl)-2-((5-(5-(difluoromethyl)-1,3,4-oxadiazol-2-yl)pyrimidin-2-yl)amino)ethyl)methanesulfonamide] | > 30000 nM | 490 nM
11 | CCS(=O)(=O)N(C)CC(Nc1ncc(-c2nnc(C(F)F)o2)cn1)c1ccc(F)cc1F (stereo not drawn) [140(+), N-(2-((5-(5-(difluoromethyl)-1,3,4-oxadiazol-2-yl)pyrimidin-2-yl)amino)-2-(2,4-difluorophenyl)ethyl)-N-methylethanesulfonamide] | > 30000 nM | 58 nM
12 | O=C(C(Nc1ncc(-c2nnc(C(F)F)o2)cn1)c1ccc(F)cc1)N1CCOCC1 (centres unmarked) [Example 30, 2-((5-(5-(difluoromethyl)-1,3,4-oxadiazol-2-yl)pyrimidin-2-yl)amino)-2-(4-fluorophenyl)-1-morpholinoethan-1-one] | > 30000 nM | 770 nM
13 | COc1cccc(C2(Nc3ncc(-c4nnc(C(F)(F)F)o4)cn3)CC2)c1 [Example 41, N-(1-(3-methoxyphenyl)cyclopropyl)-5-(5-(trifluoromethyl)-1,3,4-oxadiazol-2-yl)pyrimidin-2-amine] | > 30000 nM | 250 nM
14 | Fc1ccc2c(c1)CCC2Nc1ncc(-c2nnc(C(F)F)o2)cn1 (centres unmarked) [Example 29, 5-(5-(difluoromethyl)-1,3,4-oxadiazol-2-yl)-N-(5-fluoro-2,3-dihydro-1H-inden-1-yl)pyrimidin-2-amine] | > 30000 nM | 450 nM
15 | N#Cc1ccc(C2(Nc3ncc(-c4nnc(C(F)F)o4)cn3)CC2)cn1 [Example 25, 5-(1-((5-(5-(difluoromethyl)-1,3,4-oxadiazol-2-yl)pyrimidin-2-yl)amino)cyclopropyl)picolinonitrile] | > 30000 nM | > 1000 nM
16 | Fc1ccc(C2(Nc3ncc(-c4nnc(C(F)F)o4)cn3)CCC(F)(F)CC2)cc1 [Example 37, N-(4,4-difluoro-1-(4-fluorophenyl)cyclohexyl)-5-(5-(difluoromethyl)-1,3,4-oxadiazol-2-yl)pyrimidin-2-amine] | > 30000 nM | 180 nM

The remaining lines, values ahead:

Row | IC50 (HDAC1) | IC50 (HDAC6) | Structure (SMILES)
17 | > 30000 nM | 160 nM | Fc1ccc(C(Cn2cc(C(F)(F)F)cn2)Nc2ncc(-c3nnc(C(F)F)o3)cn2)cc1 (single isomer, unassigned) [176(+), 5-(5-(difluoromethyl)-1,3,4-oxadiazol-2-yl)-N-(1-(4-fluorophenyl)-2-(4-(trifluoromethyl)-1H-pyrazol-1-yl)ethyl)pyrimidin-2-amine]
18 | > 30000 nM | 160 nM | O=S(=O)(C1CC1)N(CC(Nc1ncc(-c2nnc(C(F)F)o2)cn1)c1ccc(F)cc1)CC(F)(F)F (single isomer, unassigned) [165(−), N-(2-((5-(5-(difluoromethyl)-1,3,4-oxadiazol-2-yl)pyrimidin-2-yl)amino)-2-(4-fluorophenyl)ethyl)-N-(2,2,2-trifluoroethyl)cyclopropanesulfonamide]
19 | > 30000 nM | 77 nM | COCC(Nc1ncc(-c2nnc(C(F)F)o2)cn1)c1ccc(F)cc1 (centres unmarked) [Example 21, 5-(5-(difluoromethyl)-1,3,4-oxadiazol-2-yl)-N-(1-(4-fluorophenyl)-2-methoxyethyl)pyrimidin-2-amine]
20 | > 30000 nM | 750 nM | O=C(NCC(Nc1ncc(-c2nnc(C(F)F)o2)cn1)c1ccc(F)cc1)C1CC1 (single isomer, unassigned) [168(−), N-(2-((5-(5-(difluoromethyl)-1,3,4-oxadiazol-2-yl)pyrimidin-2-yl)amino)-2-(4-fluorophenyl)ethyl)cyclopropanecarboxamide]
21 | > 30000 nM | 35 nM | Cc1ccc(Cl)c(C2(Nc3ncc(-c4nnc(C(F)F)o4)cn3)CC2)c1 [Example 90, N-(1-(2-chloro-5-methylphenyl)cyclopropyl)-5-(5-(difluoromethyl)-1,3,4-oxadiazol-2-yl)pyrimidin-2-amine]
22 | > 30000 nM | 47 nM | Fc1ccc(C(COc2ccccc2)Nc2ncc(-c3nnc(C(F)F)o3)cn2)cc1 (centres unmarked) [Example 19, 5-(5-(difluoromethyl)-1,3,4-oxadiazol-2-yl)-N-(1-(4-fluorophenyl)-2-phenoxyethyl)pyrimidin-2-amine]
23 | > 30000 nM | 110 nM | CCS(=O)(=O)N(CC(Nc1ncc(-c2nnc(C(F)F)o2)cn1)c1ccc(F)cc1)CC(F)(F)F (single isomer, unassigned) [164(+), N-(2-((5-(5-(difluoromethyl)-1,3,4-oxadiazol-2-yl)pyrimidin-2-yl)amino)-2-(4-fluorophenyl)ethyl)-N-(2,2,2-trifluoroethyl)ethanesulfonamide]
24 | > 30000 nM | 92 nM | Fc1cccc(F)c1C(CC(F)(F)F)Nc1ncc(-c2nnc(C(F)F)o2)cn1 (centres unmarked) [Example 102, 5-(5-(difluoromethyl)-1,3,4-oxadiazol-2-yl)-N-(1-(2,6-difluorophenyl)-3,3,3-trifluoropropyl)pyrimidin-2-amine]
25 | > 30000 nM | 64 nM | FC(F)c1nnc(-c2cnc(NC3(c4ccc(C(F)(F)F)cc4)CC3)nc2)o1 [Example 45, 5-(5-(difluoromethyl)-1,3,4-oxadiazol-2-yl)-N-(1-(4-(trifluoromethyl)phenyl)cyclopropyl) pyrimidin-2-amine]
26 | > 30000 nM | 18 nM | CCS(=O)(=O)NCC(Nc1ncc(-c2nnc(C(F)F)o2)cn1)c1ccc(OC(F)F)cc1F (stereo not drawn) [147(+), N-(2-(4-(difluoromethoxy)-2-fluorophenyl)-2-((5-(5-(difluoromethyl)-1,3,4-oxadiazol-2-yl)pyrimidin-2-yl)amino)ethyl)ethanesulfonamide]
27 | > 30000 nM | 210 nM | FC(F)c1nnc(-c2cnc(OC3(c4ccccc4)CC3)nc2)o1 [Example 12, 2-(difluoromethyl)-5-(2-(1-phenylcyclopropoxy)pyrimidin-5-yl)-1,3,4-oxadiazole]
28 | > 30000 nM | 74 nM | FC(F)c1nnc(-c2cnc(NC3(C4CCCCC4)CC3)nc2)o1 [Example 27, N-(1-cyclohexylcyclopropyl)-5-(5-(difluoromethyl)-1,3,4-oxadiazol-2-yl)pyrimidin-2-amine]
